# Tests used:
# [1] = test system: webbing clothes moth (Tineola bisselliella); test: Biological test 13: volatile agent hung in cup with webbing clothes moth larvae; type: in vivo; settings: volatile agent (100 µg on filter paper), 25 °C for 1 week
# Description: A wool muslin fabric (2 cm × 2 cm in size) was placed on the bottom of a polyethylene cup (bottom diameter : 10 cm, opening part diameter : 12.5 cm, height : 9.5 cm, volume : 950 cm^3 ). Ten middle instar larvae of webbing clothes moth (Tineola bisselliella) were put in the cup and each of the volatile agents prepared according to the formulation example 14 was hung from the cap in the interior of the cup. After standing at 25 °C for 1 week, the cup was opened, and the mortality and the degree of damage of the wool muslin fabric by the moths were examined (two replicate).
# [2] = test system: houseflies (Musca domestica); test: Biological test 9: topical application of acetone solution to houseflies; type: in vivo; settings: 5 µg / one housefly, after 24 hours
# Description: After 24 hours, the percent moribund was examined (two replicate).
# [3] = test system: webbing clothes moth (Tineola bisselliella); test: Biological test 14: persistence of treated filter paper in cardboard box, webbing clothes moth larvae; type: in vivo; design: key to degree of damage: -: no damage; +: slight damage; ++: heavy damage; +++: severe damage; settings: 36 mg on filter paper
# Description: A filter paper (3.2 cm × 3.2 cm in size) treated with 36 mg of each of the present compounds and two wool muslin fabrics (25 cm × 25 cm in size) were hung down at the upper part of a corrugated cardboard box (29 cm × 29 cm × 29 cm in size). After standing at 25 °C and a humidity of 60 % for 1 week, two tea-strainer balls holding 7 to 10 middle instar larvae of webbing clothes moth (Tineola bisselliella) and one piece of wool muslin cloth (2 cm × 2 cm in size) were hung down at the upper part of the box. The box was closed with a lid. After one week, the box was opened, and the percent moribund and the degree of damage of the wool muslin cloth by the moths were examined. The same tests was repeated 2 weeks, 3 weeks and 5 weeks after the treatment to examine the persistance of the present compound. The degree of damage was represented by "-" in no damage, " + " in slight damage, " ++ " in heavy damage and "+++ " in severe damage.
# [4] = test system: southern corn rootworm (Diabrotica undecimpunctata howardi); test: Biological test 3: treated filter paper with eggs and sprouting corn; settings: Diabrotica undecimpunctata, in Zea mays, 192 h, read-out: mortality of the hatched larvae and eggs
# [5] = test system: houseflies (Musca domestica); test: Biological test 10: vapour exposure over treated aluminum plate, houseflies; type: in vivo; settings: 0.64 ml of 0.05 (w/v) % acetone solution, no direct contact, 25 °C for 120 minutes, after 24 hours
# Description: (§1) After 0.64 ml of a 0.05 (w/v) % acetone solution of the present compounds was dropped into an aluminum plate (bottom diameter : 7 cm), acetone was air-dried. Ten female houseflies (Musca domestica) were left in a polyethylene cup (diameter : 9 cm; depth : 4.5 cm) and the cup was sealed with a 16-mesh nylon net to prevent direct contact of the houseflies with the compound. The cup was placed upside down on the aluminum plate at 25 °C for 120 minutes. The cup was then removed from the aluminum plate, and water and feed were given to the houseflies. After 24 hours, the percent moribund was examined (two replicate).
# [6] = test system: brown planthopper (Nilaparvata lugens); test: Biological test 2: rice plant stalk dipped in emulsion; type: in vivo; settings: Nilaparvata lugens, 144 h; 500 ppm aqueous emulsion, larvae, after 6 days
# Description: A stalk of a rice plant was dipped for one minute in a 500 ppm aqueous emulsion obtained by diluting each emulsifiable concentrate of the present compounds prepared according to the formulation example 1. The rice plant stalk was air-dried and placed in a polyethylene cup (diameter : 5.5 cm) where filter paper (diameter : 5.5 cm) impregnated with 1 ml of water was put. Approximately 30 larvae of brown planthopper (Nilaparvata lugens) were put in the polyethylene cup. After 6 days, the mortality of the larvae was examined.
# [7] = test system: German cockroaches (Blattella germanica); test: Biological test 5: treated filter paper with sucrose bait, cockroaches low sensitive to pyrethroids; settings: Blattella germanica, 144 h
# [8] = test system: rats; settings: male 7-week old rats, into the stomach in corn oil, after 7 days
# Description: After subjecting the rats to a twenty-hour fasting, 0.1 ml of the diluted solution per 10g weight was forcibly applied into the stomach of four male 7-week old rats. The rats were given food and water four hours after the application and thereafter regularly fed and watered, and kept in a cage. After 7 days, the mortality was examined for the rats and LD50 was calculated.
# [9] = test system: common mosquitoes (Culex pipiens pallens); test: Biological test 6: mosquito larvae in treated water; type: in vivo; settings: Culex pipiens, 24 h; 3.5 ppm active ingredient in water, last-instar larvae, after one day
# Description: 0.7 ml of aqueous emulsion, obtained by diluting emulsifiable concentrate prepared for each of the present compounds according to the formulation example 1 was added to 100 ml of ion-exchanged water (concentration of active ingredient : 3.5 ppm). Twenty last-instar larvae of common mosquitoes (Culex pipiens pallens) were left in the water. After one day, the mortality of the common mosquitoes was examined.
# [10] = test system: common mosquitoes (Culex pipiens pallens); test: Biological test 11: vapour exposure over treated aluminum plate, mosquitoes; type: in vivo; settings: Culex pipiens, 24 h
# Description: as §1, with “common mosquitoes (Culex pipiens pallens)” for “houseflies (Musca domestica)”, “mosquitoes” for “houseflies”, “mosquitoes.” for “houseflies.”, “mortality” for “percent moribund”
# [11] = test system: common mosquitoes (Culex pipiens pallens); test: Biological test 8: mosquito-coil in glass chamber, knock-down; type: in vivo; settings: 1.0 g of 0.3 % mosquito-coil, 0.34 m^3 chamber, after 15 minutes
# Description: Mosquito-coil containing the present compound in an amount of 0.3 % was prepared according to the formulation example 10 for the present compounds. Ten female common mosquitoes (Culex pipiens pallens) were left in a glass chamber (70 cm × 70 cm × 70 cm : 0.34 m^3) and 1.0 g of 0.3 % mosquito-coil having both ends lit was placed in the glass chamber. After 15 minutes, the rate of knocked-down mosquitoes was examined.
# [12] = test system: tobacco cutworm (Spodoptera litura); test: Biological test 1: artificial bait impregnated with emulsion; settings: Spodoptera litura, in Nicotiana tabacum, 144 h
# [13] = test system: common mosquitoes (Culex pipiens pallens); test: Biological test 7: oil solution sprayed in glass chamber, knock-down; type: in vivo; settings: 0.7 ml of 0.1 % oil solution sprayed, 0.34 m^3 chamber, after 15 minutes
# Description: Ten female common mosquitoes (Culex pipiens pallens) were left in a glass chamber (70 cm × 70 cm × 70 cm : 0.34 m^3). 0.7 ml of 0.1 % oil solution prepared for each of the present compounds according to the formulation example 7 was sprayed with a spray gun at 0.8 atmospheric pressure. After 15 minutes, the rate of knocked-down mosquitoes was examined.
# [14] = test system: webbing clothes moth (Tineola bisselliella); test: Biological test 12: topical application to webbing clothes moth larvae; type: in vivo; settings: 3 µg / insect, after 7 days
# Description: Each of the present compounds diluted with acetone to a predetermined concentration was applied to ten middle instar larvae of webbing clothes moth (Tineola bisselliella) at the central part of the back so as to give the active ingredient in a dose of 3 µg / insect. A wool muslin fabric (2 cm × 2 cm in size) was given to the webbing clothes moths as the food. After 7 days, the mortality and the degree of damage of the wool muslin fabric by the moths were examined (two replicate).
smiles,measurement,setting,value
"Cc1ccc(COC(=O)[C@@H]2[C@H](/C=C(\Cl)C(F)(F)F)C2(C)C)o1 (racemic) [present compound (1), 5-methyl-2-furfuryl (1RS,cis)-3-(Z-2-chloro-3,3,3-trifluoroprop-1-enyl)-2,2-dimethylcyclopropanecarboxylate]",mortality at 0.1 mg,"[1]; Tineola bisselliella, 168 h",100%
same,degree of damage of the wool muslin fabric,[1],no damage
same,percent moribund,[2],100%
same,degree of damage,[3]; After 1 week,-
same,percent moribund,[3]; After 1 week,100%
same,degree of damage,[3]; After 2 weeks,-
same,percent moribund,[3]; After 2 weeks,100%
same,degree of damage,[3]; After 3 weeks,-
same,percent moribund,[3]; After 3 weeks,100%
same,degree of damage,[3]; After 5 weeks,-
same,percent moribund,[3]; After 5 weeks,100%
same,mortality at 50 ppm,[4],100%
same,percent moribund,[5],100%
same,mortality at 500 ppm,[6],≥ 90%
same,mortality at 500 ppm,[7],100%
same,LD50,[8],300 mg/kg
same,mortality at 3.5 ppm,[9],≥ 90%
same,mortality at 500 µg/mL,[10],100%
same,rate of knocked-down mosquitoes,[11],100%
same,mortality at 500 µg/mL,[12],100%
same,rate of knocked-down mosquitoes,[13],≥ 90%
same,degree of damage of the wool muslin fabric,[14],no damage
same,mortality at 0.003 mg,"[14]; Tineola bisselliella, 168 h",100%

# Reference: patent EP0989125B1, “Pesticidal furylmethyl cyclopropanecarboxylates” (Sumitomo Chemical Company, Limited, priority 1998, dated 2000)
